Laboratory results: US8435980B2 (AbbVie Inc., priority 2009, dated 2013)

These compounds were tested against T1, Cdc7 (BEV coexpressed huCDC7/DBF4) (Homo sapiens, UniProt O00311) (assay: Cdc7 enzyme inhibition assay ([33P]ATP, biotinylated peptide substrate, FlashPlate)). Settings: Table 3; enzyme inhibition data (Ki).
T1 construct: made in house; host or cells: BEV (baculovirus expression vector) co-expression; insect cells are implied but no cell line is named
Type: biochemical
Method: Cdc7 (BEV coexpressed huCDC7/DBF4) is prepared internally. Cdc7 assays are conducted as follows with final concentrations as listed. […] Reactions are quenched after 1 hr by the addition of 90 μL stop buffer (50 mM EDTA, 2M NaCl). […] (Ki) for exemplary compounds.

T1 sequence (O00311 whole entry): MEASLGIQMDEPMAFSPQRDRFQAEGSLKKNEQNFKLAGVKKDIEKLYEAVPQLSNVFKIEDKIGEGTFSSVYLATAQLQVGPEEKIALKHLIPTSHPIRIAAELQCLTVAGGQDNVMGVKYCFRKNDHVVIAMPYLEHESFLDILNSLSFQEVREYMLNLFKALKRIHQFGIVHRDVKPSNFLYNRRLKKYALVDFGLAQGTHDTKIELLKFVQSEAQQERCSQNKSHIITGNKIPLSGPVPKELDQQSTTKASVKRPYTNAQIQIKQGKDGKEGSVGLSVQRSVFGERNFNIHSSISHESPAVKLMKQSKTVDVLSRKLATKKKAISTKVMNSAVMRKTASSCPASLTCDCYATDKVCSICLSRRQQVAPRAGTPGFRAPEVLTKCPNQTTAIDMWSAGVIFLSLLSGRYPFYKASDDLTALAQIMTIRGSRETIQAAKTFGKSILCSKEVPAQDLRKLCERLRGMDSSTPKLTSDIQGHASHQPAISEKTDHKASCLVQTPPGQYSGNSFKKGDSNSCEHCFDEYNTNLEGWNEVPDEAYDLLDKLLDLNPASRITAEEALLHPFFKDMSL
T1 sequence (Q9UBU7 whole entry partner): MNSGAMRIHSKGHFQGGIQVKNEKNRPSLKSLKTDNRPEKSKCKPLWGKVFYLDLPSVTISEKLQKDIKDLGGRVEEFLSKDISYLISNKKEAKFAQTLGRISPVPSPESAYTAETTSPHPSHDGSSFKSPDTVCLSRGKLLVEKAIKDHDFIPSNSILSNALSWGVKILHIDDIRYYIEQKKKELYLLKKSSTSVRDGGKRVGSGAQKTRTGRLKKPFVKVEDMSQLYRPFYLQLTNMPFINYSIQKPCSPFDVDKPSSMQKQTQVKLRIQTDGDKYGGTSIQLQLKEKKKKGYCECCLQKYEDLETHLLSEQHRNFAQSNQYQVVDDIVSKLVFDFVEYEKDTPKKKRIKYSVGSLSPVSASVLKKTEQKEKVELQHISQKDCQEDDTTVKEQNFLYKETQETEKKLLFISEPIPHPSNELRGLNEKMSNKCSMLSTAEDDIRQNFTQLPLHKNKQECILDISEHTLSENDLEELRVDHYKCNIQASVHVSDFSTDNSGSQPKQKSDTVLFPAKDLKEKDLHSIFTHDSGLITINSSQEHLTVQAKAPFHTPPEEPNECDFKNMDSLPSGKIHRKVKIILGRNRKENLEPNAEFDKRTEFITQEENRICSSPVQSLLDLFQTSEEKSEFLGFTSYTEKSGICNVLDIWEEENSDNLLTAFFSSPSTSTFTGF

Ki, < 10 nM:
CC(C)(CNC(=O)C1CC1)CNc1cc(-c2c[nH]c3ncccc23)cc(Cl)n1 [Example 124, N-(3-{[6-chloro-4-(1H-pyrrolo[2,3-b]pyridin-3-yl)pyridin-2-yl]amino}-2,2-dimethylpropyl)cyclopropanecarboxamide]
O=C(C1CC1)N1CCC(Nc2cc(-c3c[nH]c4ncccc34)cc(Cl)n2)CC1 [Example 126, (4-{[6-chloro-4-(1H-pyrrolo[2,3-b]pyridin-3-yl)pyridin-2-yl]amino}piperidin-1-yl)(cyclopropyl)methanone]
C[C@@H](C(=O)N[C@H]1CC[C@H](Nc2cc(-c3c[nH]c4ncccc34)cc(Cl)n2)CC1)N(C)C [Example 127, N-(trans-4-{[6-chloro-4-(1H-pyrrolo[2,3-b]pyridin-3-yl)pyridin-2-yl]amino}cyclohexyl)-N^2,N^2-dimethyl-L-alaninamide]
Clc1cc(-c2c[nH]c3ncccc23)cc(NC2CCN(C3CCC3)CC2)n1 [Example 128, 6-chloro-N-(1-cyclobutylpiperidin-4-yl)-4-(1H-pyrrolo[2,3-b]pyridin-3-yl)pyridin-2-amine]
O=C(NC1CCCC(Nc2cc(-c3c[nH]c4ncccc34)cc(Cl)n2)C1)C1CCCCN1 (stereo not drawn) [Example 129, N-(3-{[6-chloro-4-(1H-pyrrolo[2,3-b]pyridin-3-yl)pyridin-2-yl]amino}cyclohexyl)piperidine-2-carboxamide]
O=C(CN1CCCC1)NC1CCCC(Nc2cc(-c3c[nH]c4ncccc34)cc(Cl)n2)C1 (stereo not drawn) [Example 130, N-(3-{[6-chloro-4-(1H-pyrrolo[2,3-b]pyridin-3-yl)pyridin-2-yl]amino}cyclohexyl)-2-(pyrrolidin-1-yl)acetamide]
O=C(N[C@H]1CC[C@H](Nc2cc(-c3c[nH]c4ncccc34)cc(Cl)n2)CC1)C1CCC1 [Example 133, N-(trans-4-{[6-chloro-4-(1H-pyrrolo[2,3-b]pyridin-3-yl)pyridin-2-yl]amino}cyclohexyl)cyclobutanecarboxamide]
NC1(C(=O)NC2CCCC(Nc3cc(-c4c[nH]c5ncccc45)cc(Cl)n3)C2)CCC1 (stereo not drawn) [Example 135, 1-amino-N-(3-{[6-chloro-4-(1H-pyrrolo[2,3-b]pyridin-3-yl)pyridin-2-yl]amino}cyclohexyl)cyclobutanecarboxamide]
O=C(CNC1CCCC1)N[C@H]1CC[C@H](Nc2cc(-c3c[nH]c4ncccc34)cc(Cl)n2)CC1 [Example 137, N-(trans-4-{[6-chloro-4-(1H-pyrrolo[2,3-b]pyridin-3-yl)pyridin-2-yl]amino}cyclohexyl)-N^2-cyclopentylglycinamide]
CS(=O)(=O)N1CCCC(Nc2cc(-c3c[nH]c4ncccc34)cc(Cl)n2)C1 (stereo not drawn) [Example 138, 6-chloro-N-[1-(methylsulfonyl)piperidin-3-yl]-4-(1H-pyrrolo[2,3-b]pyridin-3-yl)pyridin-2-amine]
O=C1CC[C@@H](C(=O)NC2CCCC(Nc3cc(-c4c[nH]c5ncccc45)cc(Cl)n3)C2)N1 (stereo partly drawn) [Example 139, N-(3-{[6-chloro-4-(1H-pyrrolo[2,3-b]pyridin-3-yl)pyridin-2-yl]amino}cyclohexyl)-5-oxoprolinamide]
O=C(CN1CCOCC1)N[C@H]1CC[C@H](Nc2cc(-c3c[nH]c4ncccc34)cc(Cl)n2)CC1 [Example 141, N-(trans-4-{[6-chloro-4-(1H-pyrrolo[2,3-b]pyridin-3-yl)pyridin-2-yl]amino}cyclohexyl)-2-(morpholin-4-yl)acetamide]
O=C(CN1CCN(c2ccccn2)CC1)N[C@H]1CC[C@H](Nc2cc(-c3c[nH]c4ncccc34)cc(Cl)n2)CC1 [Example 142, N-(trans-4-{[6-chloro-4-(1H-pyrrolo[2,3-b]pyridin-3-yl)pyridin-2-yl]amino}cyclohexyl)-2-[4-(pyridin-2-yl)piperazin-1-yl]acetamide]
NC1CCC(CC2CCC(Nc3cc(-c4c[nH]c5ncccc45)cc(Cl)n3)CC2)CC1 (stereo not drawn) [Example 143, N-{4-[(4-aminocyclohexyl)methyl]cyclohexyl}-6-chloro-4-(1H-pyrrolo[2,3-b]pyridin-3-yl)pyridin-2-amine]
O=C1CC(C(=O)N[C@H]2CC[C@H](Nc3cc(-c4c[nH]c5ncccc45)cc(Cl)n3)CC2)CC(=O)N1 [Example 144, N-(trans-4-{[6-chloro-4-(1H-pyrrolo[2,3-b]pyridin-3-yl)pyridin-2-yl]amino}cyclohexyl)-2,6-dioxopiperidine-4-carboxamide]
NCCS(=O)(=O)NC1CCCC(Nc2cc(-c3c[nH]c4ncccc34)cc(Cl)n2)C1 (stereo not drawn) [Example 145, 2-amino-N-(3-{[6-chloro-4-(1H-pyrrolo[2,3-b]pyridin-3-yl)pyridin-2-yl]amino}cyclohexyl)ethanesulfonamide]
CN1CCCC(CNc2cc(-c3c[nH]c4ncccc34)cc(Cl)n2)C1 (stereo not drawn) [Example 146, 6-chloro-N-[(1-methylpiperidin-3-yl)methyl]-4-(1H-pyrrolo[2,3-b]pyridin-3-yl)pyridin-2-amine]
CC(=O)N1CCCC(Nc2cc(-c3c[nH]c4ncccc34)cc(Cl)n2)C1 (stereo not drawn) [Example 147, 1-(3-{[6-chloro-4-(1H-pyrrolo[2,3-b]pyridin-3-yl)pyridin-2-yl]amino}piperidin-1-yl)ethanone]
CN1CCC(N[C@H]2CC[C@H](Nc3cc(-c4c[nH]c5ncccc45)cc(Cl)n3)CC2)CC1 [Example 148, trans-N-[6-chloro-4-(1H-pyrrolo[2,3-b]pyridin-3-yl)pyridin-2-yl]-N′-(1-methylpiperidin-4-yl)cyclohexane-1,4-diamine]
COc1cnc2[nH]cc(-c3cc(Cl)nc(N[C@H]4CC[C@H](O)CC4)c3)c2c1 [Example 149, trans-4-{[6-chloro-4-(5-methoxy-1H-pyrrolo[2,3-b]pyridin-3-yl)pyridin-2-yl]amino}cyclohexanol]
O=C(CN1CCOCC1)Nc1cc(-c2c[nH]c3ncccc23)cc(Cl)n1 [Example 150, N-[6-chloro-4-(1H-pyrrolo[2,3-b]pyridin-3-yl)pyridin-2-yl]-2-(morpholin-4-yl)acetamide]
O=C(CN[C@H]1CC[C@H](O)CC1)N[C@H]1CC[C@H](Nc2cc(-c3c[nH]c4ncccc34)cc(Cl)n2)CC1 [Example 152, N-(trans-4-{[6-chloro-4-(1H-pyrrolo[2,3-b]pyridin-3-yl)pyridin-2-yl]amino}cyclohexyl)-N^2-(trans-4-hydroxycyclohexyl)glycinamide]
O=C(CNCCN1CCOCC1)N[C@H]1CC[C@H](Nc2cc(-c3c[nH]c4ncccc34)cc(Cl)n2)CC1 [Example 153, N-(trans-4-{[6-chloro-4-(1H-pyrrolo[2,3-b]pyridin-3-yl)pyridin-2-yl]amino}cyclohexyl)-N^2-[2-(morpholin-4-yl)ethyl]glycinamide]
CN(C)C1CCC(CC2CCC(Nc3cc(-c4c[nH]c5ncccc45)cc(Cl)n3)CC2)CC1 (stereo not drawn) [Example 155, 6-chloro-N-(4-{[4-(dimethylamino)cyclohexyl]methyl}cyclohexyl)-4-(1H-pyrrolo[2,3-b]pyridin-3-yl)pyridin-2-amine]
